Read-outs that look alike come from different tables or passages of the source.
What was measured:
[1] = system: collagen1A1; experiment: Anti-fibrotic effects: collagen1A1 production by LX2 cells treated with TGFbeta; format: cell-based; details: 500 nM
Source text: (§1) Methods of culturing LX2 cells and measurements of Collagen1A1 and alphaActin1 mRNA contents are provided in Ding et al, Proc Natl Acad Sci USA 2015, 112:15713-15718

[2] = system: alphaActin1; experiment: Anti-fibrotic effects: alphaActin1 production by LX2 cells treated with TGFbeta; format: cell-based; details: 500 nM
Source text: as §1

[3] = target: BRD4 (Homo sapiens, UniProt O60885); experiment: AlphaScreen assay, Bromodomain 4 inhibition; format: binding
Description: AlphaScreen assays were performed as described by Philpott et al Mol Biosyst. […] YSGRGK(Ac)GGK(Ac)GLGK(Ac)GGAK(Ac)RHRK (Biotin) peptide was used in the assays. Buffer conditions used in all experiments were 25 mM HEPES, pH 7.4, 100 mM NaCl, 0.1% BSA, supplemented with 0.05% CHAPS.

[4] = system: Interleukin 1beta (IL-1beta), Interleukin 6 (IL6) and TNF-alpha; experiment: LPS-stimulated cytokine production in whole human blood; format: cell-based; details: 10 ng/ml LPS; for inhibition at 0.6 µM: 600 nM, 24 h, read-out: Inhibition of inflammatory cytokine production
Description: BET inhibitors were added (from 10 mM DMSO solutions) to whole human blood (anti-coagulated with heparin) during incubation for 24 h at 37° C. in the presence of 10 ng/ml Lipopolysaccharide (LPS). Final DMSO concentration was below 0.01%. Cytokines production with 0.01% DMSO alone in the absence of LPS were below detection level.

[5] = system: KMS-12-BM; experiment: Inhibition of proliferation (Alamar Blue cell viability), KMS-12-BM; format: cell-based; details: Homo sapiens, Multiple myeloma, 72 h, read-out: Inhibition of cell growth, IC50
Description: (§2) A semi-log dilution was performed in 100% DMSO. Cells were cultured in DMEM containing 10% FCS and Penicillin/Streptomycin. For the assays, cells were seeded in 150 μL medium on a 96-well cell culture plate and incubated at 37° C. overnight before the compound was added. […] A day after cell seeding, 10 μL of prediluted compound was added to the cells (1:16 dilution). Treatment of cells with 0.1% DMSO and Staurosporine (1.0E-05 M) served as High control (100% viability) and Low control (0% viability), respectively
(§3) A day after cell seeding, the test compound was added to the medium to reach the final concentration and incubated for 72 h at 37° C. at 5% CO2 in air dependent on the medium. Subsequently 15 μL Alamar Blue reagent was added and fluorescence at 590 nm was measured after 3-5 h incubation at 37° C., 5% CO2 using a fluorometer.
(§4) Raw data were converted into percent cell viability relative to the high control (0.1% DMSO) and low control (1E-05M Staurosporine), which were set to 100% and 0%, respectively.

[6] = system: KG1; experiment: Inhibition of proliferation (Alamar Blue cell viability), KG1; format: cell-based; details: Homo sapiens, KG-1; AML, KG1, 72 h; read-out: Inhibition of cell growth, IC50
Description: as §2, §3, §4

[7] = system: CCL2; experiment: Production of the chemokine CCL2 by cultured human astrocytes (CCL2 mRNA); format: cell-based; details: 250 nM, 24 h
Description: CCL2 mRNA content of control astrocytes, astrocytes incubated with 10 ug/ml Tumor Necrosis Factor alpha (TNFalpha) and 10 ug/ml Interferon alpha (IFNalpha) (T/I), astrocytes treated with 250 nM of “Compound 38” (referred to as “C4” in FIG. 2) and astrocytes which are pretreated with “Compound 38” (C4) for 1 hour before stimulation with T/I. Incubation period 24 h. Details on astrocyte culture and quantification of CCL2 mRNA are provided in Mizee et al. Acta Neuropathol (2014) 128:691-703. […] Co-addition of 250 nM of “Compound 38” decreased CCL2 production by 80% both in the absence and presence of TNFalpha/Interferon as shown in FIG. 2.

[8] = system: LP-1; experiment: Inhibition of proliferation (Alamar Blue cell viability), LP-1; format: cell-based; details: Homo sapiens; Multiple myeloma, LP-1, 72 h; read-out: Inhibition of cell growth, IC50
Description: as §2, §3, §4

[9] = system: OPM-2; experiment: Inhibition of proliferation (Alamar Blue cell viability), OPM-2; format: cell-based; details: Homo sapiens; Multiple myeloma, OPM-2, 72 h; read-out: Inhibition of cell growth, IC50
Description: as §2, §3, §4

[10] = system: HL-60; experiment: Inhibition of proliferation (Alamar Blue cell viability), HL-60; format: cell-based; details: Homo sapiens; AML, HL-60, 72 h; read-out: Inhibition of cell growth, IC50
Description: as §2, §3, §4

[11] = AlphaScreen, acetylated histone peptide, read-out: Potency as inhibitor of BRD4, IC-50

SMILES | Reduction of collagen1A1 production [1] | Reduction of alphaActin1 production [2] | IC50 [3, 11] | inhibition at 0.6 µM [4] | also measured
Cc1sc2c(c1C)C(c1ccc(Cl)cc1)=NN(CC(=O)O)c1nnc(C)n1-2.Cl [Compound 42, 2-(4-(4-chlorophenyl)-2,3,9-trimethyl-6H-thieno[2,3-e][1,2,4]triazolo[3,4-c][1,2,4]triazepin-6-yl)acetic acid hydrochloride] | less inhibition | less inhibition | 290 nM |  | 
CCOC(=O)CN1N=C(c2ccc(Cl)cc2)c2c(sc(C)c2C)-n2c(C)nnc21 [Compound 41, Ethyl 2-(4-(4-chlorophenyl)-2,3,9-trimethyl-6H-thieno[2,3-e][1,2,4]triazolo[3,4-c][1,2,4]triazepin-6-yl)acetate] | reduced to an equal extent | reduced to an equal extent | 11 nM | > 80% | IC50 ([4]; 24 h at 37° C., read-out: Inhibition of production of IL-1beta, IL6 and TNF-alpha, IC50s): 6 to 60 nM
Cc1sc2c(c1C)C(c1ccc(Cl)cc1)=N[C@@H](CC(=O)OC(C)(C)C)c1nnc(C)n1-2 [(+)JQ1, reference compound] | reduced to an equal extent | reduced to an equal extent |  | ~30% | 
Cc1sc2c(c1C)C(c1ccc(Cl)cc1)=NN(C)c1nnc(C)n1-2 [Compound 38, 4-(4-chlorophenyl)-2,3,6,9-tetramethyl-6H-thieno[2,3-e][1,2,4]triazolo[3,4-c][1,2,4]triazepine] |  |  |  |  | IC50 [5]: 270 nM; IC50 [6]: 810 nM; IC50 [3]: 150 nM; Decrease of CCL2 production ([7]; absence of TNFalpha/Interferon): 80%; Decrease of CCL2 production ([7]; presence of TNFalpha/Interferon): 80%; IC50 [8]: 360 nM; IC50 [9]: 260 nM; IC50 [10]: 810 nM
Cc1sc2c(c1C)C(c1ccc(Cl)cc1)=NN(CC(=O)OC(C)(C)C)c1nnc(C)n1-2 [Compound 43, tert-butyl 2-(4-(4-chlorophenyl)-2,3,9-trimethyl-6H-thieno[2,3-e][1,2,4]triazolo[3,4-c][1,2,4]triazepin-6-yl)acetate] | less inhibition | less inhibition | 100 nM |  | 

Reference: patent US11708374B2, “Preparation of condensed triazepine derivatives and their use as BET inhibitors” (DYBLY AG, priority 2018, dated 2023)
